In patent publication US20040191833A1, “Selective activation of cellular activities mediated through a common toll-like receptor” (3M Innovative Properties Company, priority 2003, published 2004):

Legend:
human TLR7 [1] = target: T1, human TLR7 (Homo sapiens, UniProt Q9NYK1); test: TLR7 activation in HEK293 cells (NF-kB-luc luciferase reporter, H-TLR7/H-vector); format: cell-based; conditions: final IRM concentration 10 μM, 16 hours, normalized to the DMSO without compound control
T1 construct: expressed in transfected cells; host or cells: Namalwa cells (ATCC CRL-1432), pCI-neo vector, electroporated, G418 selected, with pIFN-α1-luc reporter
T1 sequence (Q9NYK1 27-1049): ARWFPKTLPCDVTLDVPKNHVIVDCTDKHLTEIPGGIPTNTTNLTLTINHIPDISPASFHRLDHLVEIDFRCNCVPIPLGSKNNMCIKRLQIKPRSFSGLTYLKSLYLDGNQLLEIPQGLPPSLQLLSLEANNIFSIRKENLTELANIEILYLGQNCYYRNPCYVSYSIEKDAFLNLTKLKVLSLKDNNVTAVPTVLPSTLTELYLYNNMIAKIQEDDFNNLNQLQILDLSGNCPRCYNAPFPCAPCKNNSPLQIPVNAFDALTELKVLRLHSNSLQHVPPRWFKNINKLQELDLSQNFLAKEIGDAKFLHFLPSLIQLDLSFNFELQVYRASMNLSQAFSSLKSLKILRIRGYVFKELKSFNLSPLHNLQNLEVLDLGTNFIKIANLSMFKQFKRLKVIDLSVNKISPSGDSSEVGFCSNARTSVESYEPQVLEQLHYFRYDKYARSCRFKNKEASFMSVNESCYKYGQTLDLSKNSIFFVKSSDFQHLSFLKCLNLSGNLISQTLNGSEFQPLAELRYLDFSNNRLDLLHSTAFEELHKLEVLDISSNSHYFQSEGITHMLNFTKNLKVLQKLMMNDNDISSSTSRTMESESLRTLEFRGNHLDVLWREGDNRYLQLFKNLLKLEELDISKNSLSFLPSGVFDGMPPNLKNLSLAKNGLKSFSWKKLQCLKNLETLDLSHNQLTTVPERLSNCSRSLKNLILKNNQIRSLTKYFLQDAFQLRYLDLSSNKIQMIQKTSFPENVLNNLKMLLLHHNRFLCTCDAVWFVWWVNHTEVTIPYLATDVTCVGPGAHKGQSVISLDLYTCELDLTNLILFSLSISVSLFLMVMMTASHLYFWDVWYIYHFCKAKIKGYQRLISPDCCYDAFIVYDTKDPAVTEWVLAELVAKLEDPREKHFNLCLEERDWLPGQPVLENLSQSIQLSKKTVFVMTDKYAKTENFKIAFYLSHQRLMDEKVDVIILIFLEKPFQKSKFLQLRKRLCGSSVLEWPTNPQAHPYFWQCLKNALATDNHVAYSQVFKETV
Procedure: (§1) In one embodiment, exemplified in Example 1, selective modulation of TLR7-mediated NF-κB activation and TLR7-mediated IFN-α1 induction were assayed. NF-κB activation was measured in genetically modified HEK293 cells (H-TLR7) by detecting TLR7-mediated NF-κB-dependent transcription of a luciferase reporter. IFN-α1 induction was measured in genetically modified Namalwa cells (N-TLR7) by detecting TLR-mediated IFN-α1-induced transcription of a luciferase reporter. Results are shown in Table 2 and are expressed as the fold increase in TLR7-mediated luciferase signal—(H-TLR7/H-vector) and (N-TLR7/N-vector), respectively—normalized to a control in which the cells were treated with vehicle that contained no IRM compound. In this assay, a compound was considered to induce the TLR7-mediated cellular activity if the compound generated at least a two-fold increase in the luciferase signal compared to the vector control.
HEK293 medium was prepared from 90% Minimum Essential Medium (MEM) with 2 mM L-glutamine and Earle's Balanced Salt Solution (Invitrogen Corp., Rockville, Md.) adjusted to contain 1.5 g/L sodium bicarbonate, 0.1 mM non-essential amino acids, and 1.0 mM sodium pyruvate; 10% heat-inactivated fetal calf serum. HEK293 cells were cultured by incubating cells in HEK293 medium overnight at 37° C, 8% CO2.
Twenty-four hours before transfection, HEK293 cells were adhered to a 10 cm dish (Corning 430167, Corning Inc., Corning, N.Y.) at 37° C., 8% CO2. The cells were co-transfected with (1) pIRES (BD Biosciences Clontech, Palo Alto, Calif.) either (a) unmodified (H-vector), or (b) containing an expressible human TLR7 gene (H-TLR7), and (2) NF-kB-luc reporter (Stratagene, La Jolla, Calif.) in a 10:1 ratio with Fugene 6 transfection reagent (Roche Diagnostics Corp., Indianapolis, Ind.) following the manufacturer's instructions. The plates were incubated for 24 hours following transfection and then selected in G-418 (400 μg/mL) for two weeks. The G-418-resistant cells containing either the expressible TLR7 gene or the empty vector were expanded in HEK293 medium supplemented with G-418 for stimulation experiments.
The transfected cells were plated in white opaque 96 well plates (Costar 3917, Corning Inc., Corning, N.Y.) at a concentration of 5×10^4 cells per well in 100 μL of HEK293 media and incubated at 37° C., 8% CO2 for 4 hours. The cells were stimulated with 1 μL of IRM compounds at 1 mM in DMSO (final IRM concentration of 10 μM) or 1 μL DMSO as a control. The plates were then incubated an additional 16 hours at 37° C., 5% CO2. The luciferase signal was read using the LucLite kit (Packard Instrument Co., Meriden, Conn.). Luminescence was measured on an LMAX luminometer (Molecular Devices Corp., Sunnyvale, Calif.).
(§2) The data are expressed as fold increase in TLR7-mediated luciferase signal—(H-TLR7/H-vector) and (N-TLR7/N-vector), respectively—normalized to the DMSO without compound control.

human TLR7 [2] = target: T1, human TLR7; test: TLR7 activation in Namalwa cells (IFN-α1 promoter luciferase reporter, N-TLR7/N-vector); format: cell-based; conditions: final IRM concentration 10 μM, 18 hours, normalized to the DMSO without compound control
Procedure: as §1
Unless otherwise indicated, all incubations were performed at 37° C. with 5% CO2 at 98% humidity.
Culture medium was prepared from complete RPMI 1640 medium (BioSource International, Inc., Camarillo, Calif.). Fetal bovine serum (Atlas Biologicals, Inc., Ft. Collins, Colo.) was added to a final concentration of 7.5% (vol/vol); L-glutamine (BioSource International, Inc.) was added to 5 mM; and sodium pyruvate (BioSource International, Inc.) was added to 1 mM.
Namalwa cells were grown by incubation in culture medium overnight. Cells were harvested by centrifugation in a tabletop centrifuge (1200 RPM for 5 minutes), and then resuspended in phosphate buffered sucrose to a concentration of 1.3×10^7 cells/mL.
For each transfection, a 750 μL aliquot of the cell suspension was placed in an electroporation cuvette with 4 mm gaps. Each aliquot received transfection DNA: 10 μg of pGL3-Enhancing vector (Promega Corp., Madison, Wis.) containing the human IFN-α1 promoter cloned into the BglII site (pIFN-α1-luc), and 10 μg of pCI-neo mammalian expression vector (Promega Corp.) either (1) unmodified (N-vector) or (2) containing an expressible human TLR7 gene (N-TLR7). The cell and vector mixtures were incubated at room temperature for 5 minutes. The cells were electroporated using a BioRad Gene Pulser (BioRad Laboratories, Hercules, Calif.) set to at 500 μF capacitance and […], then incubated at room temperature for 5 minutes.
The electroporated cells were suspended in 10 mL of culture medium and incubated overnight. Dead cells and debris were removed after 24 hours using a MACS Dead Cell Removal kit (Miltenyi Biotec, Auburn, Calif.). Cells were resuspended in 10 mL of culture medium and incubated for an additional 24 hours.
Transfected cells were selected by adding G418 (Promega Corp., Madison, Wisc.) to a final concentration of 1 mg/mL and incubating the cells for seven days.
The selected transfected cells were counted and resuspended to a concentration of 1×10^6 cell per mL in culture medium. 100 μl aliquots of cells were placed in the wells of a white-walled, white-bottomed 96-well plate (Corning, Inc. Corning, N.Y.). 1.0 μL of an IRM compound from Table 1 (prepared at 1 mM in 100% DMSO) was added to some cell aliquots so that the final concentration of IRM compound was 10 μM. As a positive control, some cell aliquots were incubated with Sendai virus instead of IRM compound. As a negative control, some cell aliquots were incubated with DMSO without IRM compound. In all cases, the cells were incubated for 18 hours.
The plates were equilibrated to room temperature before 1 volume of reconstituted LucLight Plus (Packard Instruments, Meriden, Conn.) was added to each aliquot of cells. Each well of the plate was read on an LJL Analyst (LJL Biosystems, Inc., Sunnyvale, Calif.) set with a 5 minute dark adapt.
as §2

| SMILES | H-TLR7: fold increase in TLR7-mediated luciferase signal (H-TLR7/H-vector), NF-κB-dependent reporter (human TLR7 [1]) [fold] | N-TLR7: fold increase in TLR7-mediated luciferase signal (N-TLR7/N-vector), IFN-α1 promoter reporter (human TLR7 [2]) [fold] |
| --- | --- | --- |
| COCCc1nc2c(N)nc3c(c2n1CC(C)(C)NS(C)(=O)=O)CCCC3 [IRM25, N-{2-[4-amino-2-(2-methoxyethyl)-6,7,8,9-tetrahydro-1H-imidazo[4,5-c]quinolin-1-yl]-1,dimethylethyl}methanesulfonamide] | 7.6 | 3.0 |
| Cc1nc2c(N)nc3ccccc3c2n1CCOCCNS(C)(=O)=O [IRM19, N-{2-[2-(4-amino-2-methyl-1H-imidazo[4,5-c]-1-yl)ethoxy]ethyl}methanesulfonamide] | 0.9 | 3.3 |
| Cc1nc2c(N)nc3ccccc3c2n1CCOC/C=C/c1ccccc1 [IRM5, 2-methyl-1-(2-{[(2E)-3-phenylprop-2-enyl]oxy}ethyl)-1H-imidazo[4,5-c]quinolin-4-amine] | 3.4 | 1.6 |
| CCOCc1nc2c(N)nc3ccccc3c2n1CC(C)C [IRM22, 2-(ethoxymethyl)-1-(2-methylpropyl)-1H-imidazo[4,5-c]quinolin-4-amine] | 5.5 | 2.2 |
| Cc1nc2c(N)nc3ccccc3c2n1CCOCCNC(=O)c1ccccc1 [IRM17, N-{2-[2-(4-amino-2-methyl-1H-imidazo[4,5-c]quinolin-1-yl)ethoxy]ethyl}benzamide] | 0.4 | 3.1 |
| CC(C)Cn1c(CO)nc2c(N)nc3c(c21)CCCC3 [IRM8, 2-hydroxymethyl-1-(2-methylpropyl)-6,7,8,9-tetrahydro-1H-imidazo[4,5-c]quinolin-4-amine] | 0.4 | 3.0 |
| Cc1nc2c(N)nc3ccccc3c2n1CCCNC(=O)C1CCCC1 [IRM16, N-[3-(4-amino-2-methyl-1H-imidazo[4,5-c]quinolin-1-yl)propyl]cyclopentanecarboxamide] | 0.9 | 2.8 |
| COCCOCc1nc2c(N)nc3ccccc3c2n1CCOc1ccccc1 [IRM15, 2-[(2-methoxyethoxy)methyl]-1-(2-phenoxyethyl)-1H-imidazo[4,5-c]quinolin-4-amine] | 0.8 | 2.7 |
| Nc1nc2ccccc2c2c1ncn2CCOCCCc1cncnc1 [IRM12, 1-{2-[3-(5-pyrimidinyl)propoxy]ethyl}-1H-imidazo[4,5-c]quinolin-4-amine] | 0.6 | 2.6 |
| CCCCc1nc2c(N)nc(C)c(C)c2n1CCCCNC(=O)c1ccccc1 [IRM13, N-[4-(4-amino-2-butyl-6,7-dimethyl-1H-imidazo[4,5-c]pyridin-1-yl)butyl]benzamide] | 1.0 | 2.6 |
| COCCc1nc2c(N)nc3ccccc3c2n1CCCNS(=O)(=O)c1ccccc1 [IRM7, N-{3-[4-amino-2-(2-methoxyethyl)-1H-imidazo[4,5-c]-1-yl]propyl}benzenesulfonamide] | 4.7 | 1.6 |
| CCCCc1nc2c(N)nc3ccccc3c2n1CCCNC(=O)c1cc2ccccc2cn1 [IRM3, N-[3-(4-amino-2-butyl-1H-imidazo[4,5-c]quinolin-1-yl)propyl]isoquinoline-3-carboxamide] | 4.2 | 1.9 |
| CCCCCc1nc2c(N)nc3ccccc3c2n1CCCCNS(C)(=O)=O [IRM14, N-[4-(4-amino-2-pentyl-1H-imidazo[4,5-c]quinolin-1-yl)butyl]methanesulfonamide] | 0.9 | 3.3 |
